From patent US9902702B2, “Spirocycloheptanes as inhibitors of rock” (BRISTOL-MYERS SQUIBB COMPANY, priority 2014, dated 2018)

target: ROCK2 (Homo sapiens, UniProt O75116); test: ROCK assay: phosphorylation of FITC peptide substrate, LABCHIP 3000 mobility shift; format: biochemical; conditions: 5 μM ATP, 1.5 μM peptide substrate; read-out: ROCK2 Activity (ROCK IC50 range)
Method in brief: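 Rho kinase variant phosphorylates 1.5 μM FITC-AHA-AKRRRLSSLRA-OH with 5 μM ATP in 20 mM HEPES pH 7.5, 20 mM MgCl2, 0.015% Brij-35, 4 mM DTT, DMSO <2%. EDTA stops the reaction, and phospho and non-phospho peptides are resolved by LabChip 3000 mobility shift. IC50 from dose-response curve fit.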

Chain of ROCK2 (O75116 whole entry, species assumed): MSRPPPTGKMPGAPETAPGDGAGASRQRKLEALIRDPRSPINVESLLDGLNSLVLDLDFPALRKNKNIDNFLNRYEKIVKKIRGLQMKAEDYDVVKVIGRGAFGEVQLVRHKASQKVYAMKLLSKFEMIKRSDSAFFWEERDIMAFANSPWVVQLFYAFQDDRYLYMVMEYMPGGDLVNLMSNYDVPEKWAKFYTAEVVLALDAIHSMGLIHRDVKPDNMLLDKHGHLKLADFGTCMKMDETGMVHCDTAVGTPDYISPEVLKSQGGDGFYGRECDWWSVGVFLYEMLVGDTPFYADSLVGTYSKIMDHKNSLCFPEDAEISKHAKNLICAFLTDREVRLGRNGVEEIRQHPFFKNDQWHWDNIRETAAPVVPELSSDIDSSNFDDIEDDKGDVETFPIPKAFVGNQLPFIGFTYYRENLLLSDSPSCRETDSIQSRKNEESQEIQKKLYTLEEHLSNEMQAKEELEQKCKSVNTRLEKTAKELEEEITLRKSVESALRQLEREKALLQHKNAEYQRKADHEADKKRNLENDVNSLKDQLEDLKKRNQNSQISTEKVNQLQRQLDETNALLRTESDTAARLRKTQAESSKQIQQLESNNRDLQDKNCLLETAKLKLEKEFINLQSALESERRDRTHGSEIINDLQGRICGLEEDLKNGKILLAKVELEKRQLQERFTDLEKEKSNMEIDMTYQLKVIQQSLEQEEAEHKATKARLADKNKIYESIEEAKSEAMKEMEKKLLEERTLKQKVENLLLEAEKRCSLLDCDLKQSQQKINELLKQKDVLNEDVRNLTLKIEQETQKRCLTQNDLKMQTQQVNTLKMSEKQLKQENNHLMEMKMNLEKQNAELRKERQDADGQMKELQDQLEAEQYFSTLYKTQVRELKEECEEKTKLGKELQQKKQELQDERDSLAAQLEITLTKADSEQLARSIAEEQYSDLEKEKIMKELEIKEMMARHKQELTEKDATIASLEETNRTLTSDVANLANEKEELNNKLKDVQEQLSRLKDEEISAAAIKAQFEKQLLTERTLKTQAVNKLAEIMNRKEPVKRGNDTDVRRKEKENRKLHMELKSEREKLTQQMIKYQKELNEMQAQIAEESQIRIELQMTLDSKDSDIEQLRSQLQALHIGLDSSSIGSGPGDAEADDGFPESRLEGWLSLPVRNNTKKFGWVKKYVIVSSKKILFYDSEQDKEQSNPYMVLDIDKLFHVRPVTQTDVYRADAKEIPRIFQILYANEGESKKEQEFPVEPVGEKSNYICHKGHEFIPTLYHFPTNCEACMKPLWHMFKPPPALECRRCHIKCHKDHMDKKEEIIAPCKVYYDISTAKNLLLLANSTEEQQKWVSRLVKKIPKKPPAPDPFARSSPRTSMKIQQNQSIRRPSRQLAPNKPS

**Q.** How did the IC50 turn out when `CC(C)(O)Cn1nc(C(=O)NC2CC3(C2)CC(c2n[nH]c(=O)c4ccccc24)C3)c2ccc(-c3ccc(Cl)cc3)cc21` (stereo not drawn) [Example 144, 6-(4-chlorophenyl)-1-(2-hydroxy-2-methylpropyl)-N-((αR)-6-(4-oxo-3,4-dihydrophthalazin-1-yl)spiro[3.3]heptan-2-yl)-1H-indazole-3-carboxamide] was run?
**A.** 5.1 to 15 nM

**Q.** `Cn1ccc(-c2ccc3c(C(=O)NC4CC5(C4)CC(c4n[nH]c(=O)c6ccccc46)C5)nn(CC(C)(C)O)c3c2)n1` (stereo not drawn) [Example 145, 1-(2-hydroxy-2-methylpropyl)-6-(1-methyl-1H-pyrazol-3-yl)-N-((αR)-6-(4-oxo-3,4-dihydrophthalazin-1-yl)spiro[3.3]heptan-2-yl)-1H-indazole-3-carboxamide] was tested. Which IC50 did it give?
**A.** 2.01 to 5 nM

**Q.** How did the IC50 turn out when `Cn1nccc1-c1ccc2c(C(=O)NC3CC4(C3)CC(c3n[nH]c(=O)c5ccccc35)C4)nn(CC(C)(C)O)c2c1` (stereo not drawn) [Example 146, 1-(2-hydroxy-2-methylpropyl)-6-(1-methyl-1H-pyrazol-5-yl)-N-((αR)-6-(4-oxo-3,4-dihydrophthalazin-1-yl)spiro[3.3]heptan-2-yl)-1H-indazole-3-carboxamide] was run?
**A.** 2.01 to 5 nM

**Q.** Which IC50 does the source give for `Cn1cc(-c2ccc3c(C(=O)NC4CC5(C4)CC(c4n[nH]c(=O)c6ccccc46)C5)nn(CC(C)(C)O)c3c2)cn1` (stereo not drawn) [Example 147, 1-(2-hydroyx-2-methylpropyl)-6-(1-methyl-1H-pyrazol-4-yl)-N-((αR)-6-(4-oxo-3,4-dihydrophthalazin-1-yl)spiro[3.3]heptan-2-yl)-1H-indazole-3-carboxamide] here?
**A.** 2.01 to 5 nM

**Q.** With `CC(C)(O)Cn1nc(C(=O)NC2CC3(C2)CC(c2n[nH]c(=O)c4ccccc24)C3)c2ccc(C=Cc3ccccc3)cc21` (stereo not drawn) [Example 148, 1-(2-hydroxy-2-methylpropyl)-N-((αR)-6-(4-oxo-3,4-dihydrophthalazin-1-yl)spiro[3.3]heptan-2-yl)-6-((E)-styryl)-1H-indazole-3-carboxamide] as the compound, how does the IC50 read?
**A.** 5.1 to 15 nM

**Q.** `CC(C)(O)Cn1nc(C(=O)NC2CC3(C2)CC(c2n[nH]c(=O)c4ccccc24)C3)c2ccc(C=CC3CC3)cc21` (stereo not drawn) [Example 149, 6-((E)-2-cyclopropylvinyl)-1-(2-hydroxy-2-methylpropyl)-N-((αR)-6-(4-oxo-3,4-dihydrophthalazin-1-yl)spiro[3.3]heptan-2-yl)-1H-indazole-3-carboxamide] was tested. Which IC50 did it give?
**A.** 5.1 to 15 nM

**Q.** `COc1cccc(-c2ccc3c(C(=O)NC4CC5(C4)CC(c4n[nH]c(=O)c6ccccc46)C5)nn(CC(C)(C)O)c3c2)n1` (stereo not drawn) [Example 150, 1-(2-hydroxy-2-methylpropyl)-6-(6-methoxypyridin-2-yl)-N-((αR)-6-(4-oxo-3,4-dihydrophthalazin-1-yl)spiro[3.3]heptan-2-yl)-1H-indazole-3-carboxamide] was tested. Which IC50 did it give?
**A.** 2.01 to 5 nM

**Q.** Which IC50 does the source give for `CC(C)(O)Cn1nc(C(=O)NC2CC3(C2)CC(c2n[nH]c(=O)c4ccccc24)C3)c2ccc(/C=C\C3CC3)cc21` (stereo not drawn) [Example 151, 6-((Z)-2-cyclopropylvinyl)-1-(2-hydroxy-2-methylpropyl)-N-((αR)-6-(4-oxo-3,4-dihydrophthalazin-1-yl)spiro[3.3]heptan-2-yl)-1H-indazole-3-carboxamide] here?
**A.** 5.1 to 15 nM

**Q.** Which IC50 does the source give for `CC(C)(O)Cn1nc(C(=O)N[C@H]2CC3(C2)C[C@H](c2n[nH]c(=O)c4ccccc42)C3)c2ccc(Br)cc21` (stereo partly drawn) [Example 152, 6-bromo-1-(2-hydroxy-2-methylpropyl)-N-((αR)-6-(4-oxo-3,4-dihydrophthalazin-1-yl)spiro[3.3]heptan-2-yl)-1H-indazole-3-carboxamide] here?
**A.** 2.01 to 5 nM

**Q.** `COc1ccc(-c2ccc3c(C(=O)NC4CC5(C4)CC(c4n[nH]c(=O)c6ccccc46)C5)nn(CC(C)(C)O)c3c2)cc1` (stereo not drawn) [Example 153, 1-(2-hydroxy-2-methylpropyl)-6-(4-methoxyphenyl)-N-((αR)-6-(4-oxo-3,4-dihydrophthalazin-1-yl)spiro[3.3]heptan-2-yl)-1H-indazole-3-carboxamide] was tested. Which IC50 did it give?
**A.** 2.01 to 5 nM

**Q.** Which IC50 does the source give for `Cn1cc(-c2ccc3c(C(=O)NC4CC5(C4)CC(c4n[nH]c(=O)c6ccccc46)C5)nn(CC(C)(C)O)c3c2)nn1` (stereo not drawn) [Example 154, 1-(2-hydroxy-2-methylpropyl)-6-(1-methyl-1H-1,2,3-triazol-4-yl)-N-((αR)-6-(4-oxo-3,4-dihydrophthalazin-1-yl)spiro[3.3]heptan-2-yl)-1H-indazole-3-carboxamide] here?
**A.** 2.01 to 5 nM

**Q.** For `Cc1noc(C)c1-c1ccc2c(C(=O)NC3CC4(C3)CC(c3n[nH]c(=O)c5ccccc35)C4)nn(CC(C)(C)O)c2c1` (stereo not drawn) [Example 155, 6-(3,5-dimethylisoxazol-4-yl)-1-(2-hydroxy-2-methylpropyl)-N-((αR)-6-(4-oxo-3,4-dihydrophthalazin-1-yl)spiro[3.3]heptan-2-yl)-1H-indazole-3-carboxamide], which IC50 is on record?
**A.** 2.01 to 5 nM

**Q.** For `CC(C)(O)Cn1nc(C(=O)NC2CC3(C2)CC(c2n[nH]c(=O)c4ccccc24)C3)c2ccc(-c3cccc(Cl)c3)cc21` (stereo not drawn) [Example 156, 6-(3-chlorophenyl)-1-(2-hydroxy-2-methylpropyl)-N-((αR)-6-(4-oxo-3,4-dihydrophthalazin-1-yl)spiro[3.3]heptan-2-yl)-1H-indazole-3-carboxamide], which IC50 is on record?
**A.** 5.1 to 15 nM

**Q.** How did the IC50 turn out when `COc1ccccc1-c1ccc2c(C(=O)NC3CC4(C3)CC(c3n[nH]c(=O)c5ccccc35)C4)nn(CC(C)(C)O)c2c1` (stereo not drawn) [Example 157, 1-(2-hydroxy-2-methylpropyl)-6-(2-methoxyphenyl)-N-((αR)-6-(4-oxo-3,4-dihydrophthalazin-1-yl)spiro[3.3]heptan-2-yl)-1H-indazole-3-carboxamide] was run?
**A.** 0.2 to 2 nM

**Q.** Which IC50 does the source give for `COc1cccc(-c2ccc3c(C(=O)NC4CC5(C4)CC(c4n[nH]c(=O)c6ccccc46)C5)nn(CC(C)(C)O)c3c2)c1` (stereo not drawn) [Example 158, 1-(2-hydroxy-2-methylpropyl)-6-(3-methoxyphenyl)-N-((αR)-6-(4-oxo-3,4-dihydrophthalazin-1-yl)spiro[3.3]heptan-2-yl)-1H-indazole-3-carobxamide] here?
**A.** 2.01 to 5 nM

**Q.** Which IC50 does the source give for `CC(C)(O)Cn1nc(C(=O)NC2CC3(C2)CC(c2n[nH]c(=O)c4ccccc24)C3)c2ccc(-c3c(F)cccc3F)cc21` (stereo not drawn) [Example 159, 6-(2,6-difluorophenyl)-1-(2-hydroxy-2-methylpropyl)-N-((αR)-6-(4-oxo-3,4-dihydrophthalazin-1-yl)spiro[3.3]heptan-2-yl)-1H-indazole-3-carboxamide] here?
**A.** 2.01 to 5 nM

**Q.** How did the IC50 turn out when `CC(C)(O)Cn1nc(C(=O)NC2CC3(C2)CC(c2n[nH]c(=O)c4ccccc24)C3)c2ccc(-c3ccccc3C#N)cc21` (stereo not drawn) [Example 160, 6-(2-cyanophenyl)-1-(2-hydroxy-2-methylpropyl)-N-((αR)-6-(4-oxo-3,4-dihydrophthalazin-1-yl)spiro[3.3]heptan-2-yl)-1H-indazole-3-carboxamide] was run?
**A.** 0.2 to 2 nM

**Q.** How did the IC50 turn out when `CC(C)(O)Cn1nc(C(=O)NC2CC3(C2)CC(c2n[nH]c(=O)c4ccccc24)C3)c2ccc(-c3cnoc3)cc21` (stereo not drawn) [Example 161, 1-(2-hydroxy-2-methylpropyl)-6-(isoxazol-4-yl)-N-((αR)-6-(4-oxo-3,4-dihydrophthalazin-1-yl)psiro[3.3]heptan-2-yl)-1H-indazole-3-carboxamide] was run?
**A.** 5.1 to 15 nM

**Q.** `CC(C)(O)Cn1nc(C(=O)NC2CC3(C2)CC(F)(c2n[nH]c(=O)c4ccccc24)C3)c2ccccc21` (stereo not drawn) [Example 162, N-(6-fluoro-6-(4-oxo-3,4-dihydrophthalazin-1-yl)spiro[3.3]heptan-2-yl)-1-(2-hydroxy-2-methylpropyl)-1H-indazole-3-carboxamide] was tested. Which IC50 did it give?
**A.** 15.1 to 100 nM

**Q.** For `CC(C)(O)Cn1nc(C(=O)NC2CC3(C2)CC(F)(c2n[nH]c(=O)c4ccccc24)C3)c2ccc(F)cc21` (stereo not drawn) [Example 163, 6-fluoro-N-(6-fluoro-6-(4-oxo-3,4-dihydrophthalazin-1-yl)spiro[3.3]heptan-2-yl)-1-(2-hydroxy-2-methylpropyl)-1H-indazole-3-carboxamide], which IC50 is on record?
**A.** 15.1 to 100 nM

**Q.** For `O=C(NC1CC2(C1)CC(F)(c1n[nH]c(=O)c3ccccc13)C2)c1cnn2ccccc12` (stereo not drawn) [Example 164, N-(6-fluoro-6-(4-oxo-3,4-dihydrophthalazin-1-yl)spiro[3.3]heptan-2-yl)pyrazolo[1,5-α]pyridine-3-carboxamide], which IC50 is on record?
**A.** 15.1 to 100 nM

**Q.** With `O=C(N[C@H]1CC2(C1)C[C@H](c1n[nH]c(=O)c3ccccc31)C2)c1cnn2cc(N3CCCC3=O)ccc12` (stereo partly drawn) [Example 165, N-((aR)-6-(4-oxo-3,4-dihydrophthalazin-1-yl)spiro[3.3]heptan-2-yl)-6-(2-oxopyrrolidin-1-yl)pyrazolo[1,5-a]pyridine-3-carboxamide] as the compound, how does the IC50 read?
**A.** 5.1 to 15 nM

**Q.** `O=C(NC1CC2(C1)CC(c1n[nH]c(=O)c3ccccc13)C2)c1cnn2cc(C3CC3)ccc12` (stereo not drawn) [Example 166, 6-cyclopropyl-N-((αR)-6-(4-oxo-3,4-dihydrophthalazin-1-yl)spiro[3.3]heptan-2-yl)pyrazolo[1,5-α]pyridine-3-carboxamide] was tested. Which IC50 did it give?
**A.** 0.2 to 2 nM

**Q.** For `O=C(NC1CC2(C1)CC(c1n[nH]c(=O)c3ccccc13)C2)c1cnn2cc(-c3cnn(C(F)F)c3)ccc12` (stereo not drawn) [Example 167, 6-(1-(difluoromethyl)-1H-pyrazol-4-yl)-N-((αR)-6-(4-oxo-3,4-dihydrophthalazin-1-yl)spiro[3.3]heptan-2-yl)pyrazolo[1,5-α]pyridine-3-carboxamide], which IC50 is on record?
**A.** 0.2 to 2 nM

**Q.** For `N#Cc1ccc2c(C(=O)NC3CC4(C3)CC(c3n[nH]c(=O)c5ccccc35)C4)cnn2c1` (stereo not drawn) [Example 168, 6-cyano-N-((αR)-6-(4-oxo-3,4-dihydrophthalazin-1-yl)spiro[3.3]heptan-2-yl)pyrazolo[1,5-α]pyridine-3-carboxamide], which IC50 is on record?
**A.** 15.1 to 100 nM

**Q.** With `O=C(NC1CC2(C1)CC(c1n[nH]c(=O)c3ccccc13)C2)c1cnn2cc(-n3ccccc3=O)ccc12` (stereo not drawn) [Example 169, N-((αR)-6-(4-oxo-3,4-dihydrophthalazin-1-yl)spiro[3.3]heptan-2-yl)-6-(2-oxopyridin-1(2H)-yl)pyrazolo[1,5-α]pyridine-3-carboxamide] as the compound, how does the IC50 read?
**A.** 5.1 to 15 nM

**Q.** Which IC50 does the source give for `Cn1cc(-c2ccc3c(C(=O)NC4CC5(C4)CC(c4n[nH]c(=O)c6ccccc46)C5)cnn3c2)cn1` (stereo not drawn) [Example 170, 6-(1-methyl-1H-pyrazol-4-yl)-N-((αR)-6-(4-oxo-3,4-dihydrophthalazin-1-yl)spiro[3.3]heptan-2-yl)pyrazolo[1,5-α]pyridine-3-carboxamide] here?
**A.** 0.2 to 2 nM
